How the values were obtained:
[1] = Drug release studies, polymer-drug-clay extrudate (Example 3); type: physicochemical
Description: PEGIB is PEG+ibuprofen, PEGIBM is PEG+ibuprofen+montmorillonite (natural clay) and PEGIBS is PEG+ibuprofen+synthetic clay. In one embodiment the extrudate is rod shaped with a diameter of 1 mm.
In one embodiment the extrudate is rod shaped with a diameter of 1 mm.

[2] = Drug release studies, polymer-drug-clay disks (Example 3); type: physicochemical
Description: In a one embodiment the discs were 18 mm in diameter and 1 mm thick. Different sizes or shapes of discs will influence the release rate of the drug.

Time 50% release ([1]; PEG-Ibuprofen-Clay Extrudate) | Time 80% release ([1]; PEG-Ibuprofen-Clay Extrudate) | Time 100% release ([1]; PEG-Ibuprofen-Clay Extrudate) | Time 50% release ([2]; PEG-Ibuprofen-Clay Disks) | Time 80% release ([2]; PEG-Ibuprofen-Clay Disks) | Time 100% release ([2]; PEG-Ibuprofen-Clay Disks) | Time 50% release ([1]; PCL-Paracetamol-Clay Extrudate) | Time 80% release ([1]; PCL-Paracetamol-Clay Extrudate) | Time 100% release ([1]; PCL-Paracetamol-Clay Extrudate) | Time 50% release ([1]; PEG-Paracetamol-Clay Extrudate) | Time 80% release ([1]; PEG-Paracetamol-Clay Extrudate) | Time 100% release ([1]; PEG-Paracetamol-Clay Extrudate) | Time 50% release ([2]; PCL-Paracetamol-Clay Disks) | Time 80% release ([2]; PCL-Paracetamol-Clay Disks) | Time 100% release ([2]; PCL-Paracetamol-Clay Disks) | Time 50% release ([2]; PEG-Paracetamol-Clay Disks) | Time 80% release ([2]; PEG-Paracetamol-Clay Disks) | Time 100% release ([2]; PEG-Paracetamol-Clay Disks) | Structure (SMILES)
<5 min | <5 min | 10 min | <5 min | <5 min | 10 min | – | – | – | – | – | – | – | – | – | – | – | – | CC(C)Cc1ccc(C(C)C(=O)O)cc1 (stereo not drawn) [Ibuprofen Powder, ibuprofen]
– | – | – | – | – | – | <5 min | <5 min | <5 min | <5 min | <5 min | <5 min | <5 min | <5 min | <5 min | <5 min | <5 min | <5 min | CC(=O)Nc1ccc(O)cc1 [Paracetamol powder, paracetamol]
